Measurements as given in patent US20200315998A1, “COMPOSITION FOR IMPROVING INTESTINAL BARRIER FUNCTION” (SUNTORY HOLDINGS LIMITED, priority 2017, published 2020).

Test system: Caco-2 cells
Assay: Evaluation of intestinal barrier function improvement: TEER reduction suppression in Caco-2 monolayer with inflammatory cytokines (TNFα, IL-1β, IFNγ)
Type: cell-based, human
Settings: for Synergistic effect (M.V./T/V/) / TEER reduction suppression ratio (%) +gallic acid (actual measurement value) (M.V.) / Synergistic effect (M.V./T.V.): combined use of phenolic compound and gallic acid; for TEER reduction suppression ratio (%) +gallic acid (theoretical value) (T.V.): sum of ratios of phenolic compound alone and gallic acid alone; for Relative value of TEER reduction suppression ratio: sample alone 1 μM; for Synergistic effect (relative value of actual measurement value / relative value of theoretical value): combined use of the phenolic compound with gallic acid, 1 μM each (Table 1)
Description: The intestinal barrier function improvement effect is indicated by, for example, increase in the electrical resistance value (transepithelial electric resistance: TEER) of the intestinal epithelial cells or suppression of the decrease in the TEER. A substance increasing the TEER or suppressing the decrease thereof has the action of normalizing or strengthening the tight junction in the intestinal epithelial cells. The intestinal barrier function improvement effect is also indicated by decrease in the amount of a substance permeating from the intestinal side of the intestinal epithelial cells to the inside of the body. The person skilled in the art can select a specific method of evaluating the intestinal barrier function improvement effect depending on the purpose. For exarple, as shown in Examples to be described later, a method for measuring TEER using an intestinal permeation model using human intestinal epithelial cells (Caco-2 cells) can be used. Specifically, inflammatory cytokine (TNFα, IL-1β, IFNγ and the like) is added into Caco-2 monolayer cultured cells to produce a state where the intestinal barrier function can be collapsed in human. If the addition of a test substance suppresses the decrease in the TEER as compared with the case where the substance is not added, the test substance can be evaluated to have the intestinal barrier function improvement effect.
Caco-2 cells were cultured for three weeks at 37° C. in Transwell (manufactured by Millicell Corporation) using DMEM (Dulbecco's modified Eagle's medium). A medium was removed from a plate of cultured Caco-2 cells, and the well was washed 3 times with serum-free DMEM. The well was filled with the medium. Then, the transepithelial electrical resistance (TEER) of Caco-2 monolayer cells was measured by Millicell-ERS (manufactured by Millipore Corporation). Cells (TEER≥1000 Ω·cm^2) determined that a sufficient tight junction was formed were selected, and used for the next screening. Then, to test solutions (media) on both apical and basolateral membrane sides, a sample, TNFα (40 ng/mL), IL-1β (20 ng/mL), and IFNγ (10 ng/mL) were added, followed by cultivating for 48 hours. The sample was dissolved in dimethyl sulfoxide (DMSO), and the solution was then added to the test solutions. In this case, a well to which inflammatory cytokine (TNFα, IL-1β, and IFNγ) and the sample were not added was provided as normal. A well to which inflammatory cytokine was added and the sample was not added was provided as control. After the cultivation, TEER was measured again, to evaluate whether the sample suppressed the reduction (decrease) of TEER due to the inflammatory cytokine.
The TEER reduction suppression ratio (%) due to the sample was determined according to the following formula from the TEER values of the well to which the sample was added, normal, and control.
(Calculating formula of TEER reduction suppression ratio) TEER reduction suppression ratio (%)=100×((TEER of well to which sample is added)−(TEER of control))/((TEER of normal)−(TEER of control))
In this evaluation system, as the TEER reduction suppression ratio (%) is higher, an intestinal barrier function improvement effect is higher.

Compound	Synergistic effect (M.V./T/V/) (each 10 μM)	TEER reduction suppression ratio (%) +gallic acid (actual measurement value) (M.V.) (each 10 μM)	Synergistic effect (M.V./T.V.) (each 1 μM)	TEER reduction suppression ratio (%) +gallic acid (actual measurement value) (M.V.) (each 1 μM)	other results
COc1cc(-c2[o+]c3cc(O)cc(O)c3cc2O)cc(O)c1O [Petunidin chloride, petunidin chloride]	1.9	70%	–	–	–
Oc1cc(O)c2c(c1)O[C@H](c1ccc(O)c(O)c1)[C@H](O)[C@H]2c1c(O)cc(O)c2c1O[C@H](c1ccc(O)c(O)c1)[C@@H](O)C2 [Procyanidin B1, procyanidin B1]	2.4	74%	–	–	TEER reduction suppression ratio (%) +gallic acid (theoretical value) (T.V.) (10 μM each): 31%
O=C(O[C@@H]1Cc2c(O)cc(O)cc2O[C@@H]1c1ccc(O)c(O)c1)c1cc(O)c(O)c(O)c1 [Epicatechin gallate, epicatechin gallate]	2.3	110%	–	–	–
O=C(OC[C@H]1O[C@@H](OC(=O)c2cc(O)c(O)c(O)c2)[C@H](O)[C@@H](O)[C@@H]1OC(=O)c1cc(O)c(O)c(O)c1)c1cc(O)c(O)c(O)c1 [1,4,6-tri-O-galloyl-β-D-glucose]	–	–	1.7	40%	–
O=C(O[C@@H]1O[C@H](CO)[C@@H](O)[C@H](O)[C@H]1O)c1cc(O)c(O)c(O)c1 [β-glucogallin]	–	–	2.4	48%	–
O=c1cc(-c2ccc(O)c(O)c2)oc2cc(O)cc(O)c12 [Luteolin, luteolin]	1.6	58%	–	–	–
O=c1c(O)cc([C@H]2Oc3cc(O)cc(O)c3C[C@H]2O)cc2c([C@H]3Oc4cc(O)cc(O)c4C[C@H]3O)cc(O)c(O)c12 [Theaflavin, theaflavin]	1.6	98%	–	–	–
Oc1cc(O)c2c(c1)O[C@H](c1cc(O)c(O)c(O)c1)[C@@H](O)C2 [Galloatechin (GC), gallocatechin]	–	–	–	–	Relative value of TEER reduction suppression ratio (Evaluation 3, gallocatechin (GC) set to 1.0): 1.0; Synergistic effect (relative value of actual measurement value / relative value of theoretical value): 2.5
O=C(OC[C@H]1O[C@@H](OC(=O)c2cc(O)c(O)c(O)c2)[C@H](OC(=O)c2cc(O)c(O)c(O)c2)[C@@H](OC(=O)c2cc(O)c(O)c(O)c2)[C@@H]1O)c1cc(O)c(O)c(O)c1 [1,2,3,6-tetra-O-galloyl-β-D-glucose]	–	–	1.5	81%	–
O=c1c(O)c(-c2ccc(O)cc2)oc2cc(O)cc(O)c12 [Kaempferol, kaempferol]	2.5	43%	–	–	–
O=C1C[C@@H](c2ccc(O)cc2)Oc2cc(O)cc(O)c21 [Naringenin, naringenin]	2.0	61%	–	–	–
OC[C@H]1O[C@@H](Oc2cc(O)cc(/C=C/c3ccc(O)cc3)c2)[C@H](O)[C@@H](O)[C@@H]1O (relative stereo) [trans-Piceid, trans-piceid]	1.5	65%	–	–	TEER reduction suppression ratio (%) +gallic acid (theoretical value) (T.V.) (10 μM each): 45%
eugeniflorin D2	–	–	1.3	102%	TEER reduction suppression ratio (%) +gallic acid (theoretical value) (T.V.) (1 μM each): 80%
Oc1cc(O)c2c(c1)O[C@H](c1ccc(O)c(O)c1)[C@H](O)C2 [Epicatechin (EC), epicatechin]	–	–	–	–	Relative value of TEER reduction suppression ratio (Evaluation 2, epicatechin (EC) set to 1.0): 1.0; Synergistic effect (relative value of actual measurement value / relative value of theoretical value): 1.7
stenophyllanin A	–	–	1.7	95%	TEER reduction suppression ratio (%) +gallic acid (theoretical value) (T.V.) (1 μM each): 56%
